Data taken from US10064840B2, “Pharmaceutical composition for the treatment of multi-drug resistant infections” (priority 2014, dated 2018).
Like-named read-outs stand apart in the source and are kept apart here.

Experiments:
Type in all cases: cell-based
[1] = system: Staphylococcus aureus 1199B (Nor A overexpressing); test: Nor A efflux pump inhibition, broth checkerboard combination with ciprofloxacin; details: for MEC4 (minimum effective concentration of compound that brings about 4 fold reduction in the MIC of Ciprofloxacin): in combination with ciprofloxacin
Description: Combination studies were performed by a broth checkerboard method A series of twofold dilutions of test ciprofloxacin in Muller Hinton Broth (pH 7.0) was tested in combination with twofold dilutions of boeravinone B in 96-well microtiter plates. The final concentrations of ciprofloxacin ranged from 0.03 mg/L/ml to 64 mg/L and for boeravinone B from 0.8 mg/L to 50 mg/L. Piperine at a same concentration range as that of boeravinone B was used as standard EPI. Nor A overexpressing derivative of a clinical isolate (SA-1199B) obtained from S. aureus strain ATCC No. 29213 (American Type Culture Collection Manassas, Va., USA) was kindly gifted by Dr G. W. Kaatz (Wayne State University School of Medicine, Detroit, Mich., USA). Bacterial inocula were prepared by adjusting the inoculum density of the overnight grown Staphylococcus aureus 1199B (Nor A overexpressing) to 0.5 McFarland (˜1.5×10^8 CFU/mL of Escherichia coli). These inocula were diluted 1:100 in sterile normal saline and 100 μl of these diluted inocula was dispensed in each well. The final bacterial inoculum reached in each well was equal 5×10^5 CFU/mL. The plates were incubated at 37° C. for 24 hrs. The MIC was read visually as the lowest concentration of ciprofloxacin inhibiting the growth of bacteria as evident from the absence of turbidity.

[2] = system: Staphylococcus aureus SA-K2191 (Msr A overexpressing); test: Msr A efflux pump inhibition, broth checkerboard combination with erythromycin
Description: Combination studies were performed by a broth checkerboard method. A series of two-fold dilutions of test Erythromycin in Muller Hinton Broth (pH 7.0) was tested in combination with twofold dilutions of boeravinone B in 96-well microtiter plates. The final concentrations of erythromycin ranged from 0.03 mg/L/ml to 64 mg/L and for boeravinone B from 0.8 mg/L to 50 mg/L. MsrA overexpressing S. aureus derivative (RN4220) obtained by transforming with pSK265 into which the gene for MsrA has been cloned from S. aureus ATCC 29213 (American type culture collection Manassas, Va., USA) was kindly gifted by Dr G. W. Kaatz (Wayne State University School of Medicine, Detroit, Mich., USA). Bacterial inocula were prepared by adjusting the inoculum density of the overnight grown Staphylococcus aureus SA-K2191 (Msr A overexpressing) to 0.5 McFarland (˜1.5×10^8 CFU/mL of Escherichia coli). These inocula were diluted 1:100 in sterile normal saline and 100 μl of these diluted inocula was dispensed in each well. The final bacterial inoculum reached in each well was equal 5×10^5 CFU/mL. The plates were incubated at 37° C. for 24 hrs. The MIC was read visually as the lowest concentration of erythromycin inhibiting the growth of bacteria as evident from the absence of turbidity. […]

[3] = system: Staphylococcus aureus Mupr-1 (Mde A overexpressing); test: Mde A efflux pump inhibition, broth checkerboard combination with mupirocin; details: for MIC: Staphylococcus aureus
Description: Staphylococcus aureus Mupr-1 (Mde A overexpressing) was prepared in-house from SA-1199-Wild type clinical isolate which was gifted by Prof. Dr G. W. Kaatz (Wayne State University School of Medicine, Detroit, Mich., USA) by serially passaging SA-1199 strain on mupirocin. Combination studies were performed by a broth checkerboard method. A series of twofold dilutions of test mupirocin in Muller Hinton Broth (pH 7.0) was tested in combination with twofold dilutions of boeravinone B in 96-well microtiter plates. The final concentrations of mupirocin ranged from 0.03 mg/L/ml to 64 mg/L and for boeravinone B from 0.8 mg/L to 50 mg/L. Bacterial inocula were prepared by adjusting the inoculum density of the overnight grown Staphylococcus aureus Mup^r-1 (Mde A overexpressing) to 0.5 McFarland (˜1.5×10^8 CFU/mL of Escherichia coli). Mde A overexpressing derivative S. aureus strain was prepared in lab upon mupirocin treatment (Mup^r-1) from S. aureus strain ATCC No. 29213 (American type culture collection Manassas, Va., USA). These inocula were diluted 1:100 in sterile normal saline and 100 μl of these diluted inocula was dispensed in each well. The final bacterial inoculum reached in each well was equal 5×10^5 CFU/mL. The plates were incubated at 37° C. for 24 hrs. The MIC was read visually as the lowest concentration of mupirocin inhibiting the growth of bacteria as evident from the absence of turbidity. […]

[4] = at 25 μM concentration of boeravinone B

For `Cc1c(O)cc2oc3c(c(=O)c2c1O)-c1ccccc1OC3O` (centres unmarked) [Boeravinone B, 6,9,11-trihydroxy-10-methyl[1]benzopyrano[3,4-b][1]benzopyran-12(6H)-one], the “decrease of the MIC of ciprofloxacin” value ([1]; at highest concentration (50 μM) of boeravinone B) was 8 folds, the “enhancement in antibacterial activity of ciprofloxacin” value ([1]; combination with ciprofloxacin, MDR S. aureus, concentration not given) was 8 folds and the “MIC of ciprofloxacin in presence of compound” value ([1]; compound concentration 0.7 μM) was 8 µg/mL. The “MIC of ciprofloxacin in presence of compound” value ([1]; compound concentration 1.5 μM) was 8 µg/mL, the “MIC of ciprofloxacin in presence of compound” value ([1]; compound concentration 3.12 μM) was 4 µg/mL and the “MIC of ciprofloxacin in presence of compound” value ([1]; compound concentration 6.25 μM) was 4 µg/mL. The “MIC of ciprofloxacin in presence of compound” value ([1]; compound concentration 12.5 μM) was 2 µg/mL, the “MIC of ciprofloxacin in presence of compound” value ([1]; compound concentration 25 μM) was 1 µg/mL and the “MIC of ciprofloxacin in presence of compound” value ([1]; compound concentration 50 μM) was 1 µg/mL. For the same compound, the “MEC4 (minimum effective concentration of compound that brings about 4 fold reduction in the MIC of Ciprofloxacin)” value [1] was 12.5 µM, the “reduction of MIC of erythromycin” value [2, 4] was 4 folds and the “enhancement in antibacterial activity of erythromycin” value ([2]; combination with erythromycin, MDR S. aureus, concentration not given) was 4 folds. The “MIC of Erythromycin in presence of compound” value ([2]; compound concentration 0.7 μM) was 64 µg/mL, the “MIC of Erythromycin in presence of compound” value ([2]; compound concentration 1.5 μM) was 64 µg/mL and the “MIC of Erythromycin in presence of compound” value ([2]; compound concentration 3.12 μM) was 64 µg/mL. For the same compound, the “MIC of Erythromycin in presence of compound” value ([2]; compound concentration 6.25 μM) was 64 µg/mL, the “MIC of Erythromycin in presence of compound” value ([2]; compound concentration 12.5 μM) was 32 µg/mL and the “MIC of Erythromycin in presence of compound” value ([2]; compound concentration 25 μM) was 16 µg/mL. For the same compound, the “MIC of Erythromycin in presence of compound” value ([2]; compound concentration 50 μM) was 16 µg/mL, the “MEC4 (minimum effective concentration of boeravinone B that brings about 4 fold reduction in the MIC of erythromycin)” value ([2]; in combination with erythromycin) was 25 µM and the MIC ([3]; read-out: MIC of mupirocin in presence of compound, compound concentration 0.7 μM) was 256 µg/mL. For the same compound, the MIC ([3]; read-out: MIC of mupirocin in presence of compound, compound concentration 1.5 μM) was 256 µg/mL, the MIC ([3]; read-out: MIC of mupirocin in presence of compound, compound concentration 3.12 μM) was 256 µg/mL and the MIC ([3]; read-out: MIC of mupirocin in presence of compound, compound concentration 6.25 μM) was 256 µg/mL. The MIC ([3]; read-out: MIC of mupirocin in presence of compound, compound concentration 12.5 μM) was 128 µg/mL, the MIC ([3]; read-out: MIC of mupirocin in presence of compound, compound concentration 25 μM) was 64 µg/mL and the MIC ([3]; read-out: MIC of mupirocin in presence of compound, compound concentration 50 μM) was 64 µg/mL. For the same compound, the “reduction of MIC of mupirocin” value [3, 4] was 4 fold, the “enhancement in antibacterial activity of mupirocin” value ([3]; combination with mupirocin, MDR S. aureus, concentration not given) was 4 folds and the “MEC4 (minimum effective concentration of boeravinone B that brings about 4 fold reduction in the MIC of Mupirocin)” value ([3]; in combination with mupirocin) was 25 µM.
Work on `O=C(O)c1cn(C2CC2)c2cc(N3CCNCC3)c(F)cc2c1=O` [Ciprofloxacin, ciprofloxacin, reference compound] yielded an MIC ([1]; Staphylococcus aureus, 24 h, read-out: MIC Ciprofloxacin Alone) of 8 µg/mL.
For `CC[C@H]1OC(=O)[C@H](C)[C@@H](O[C@H]2C[C@@](C)(OC)[C@@H](O)[C@H](C)O2)[C@H](C)[C@@H](O[C@@H]2O[C@H](C)C[C@H](N(C)C)[C@H]2O)[C@](C)(O)C[C@@H](C)C(=O)[C@H](C)[C@@H](O)[C@]1(C)O` [Erythromycin, erythromycin, reference compound], the MIC ([2]; Staphylococcus aureus, 24 h, read-out: MIC of Erythromycin Alone) was 64 µg/mL.
`O=C(/C=C/C=C/c1ccc2c(c1)OCO2)N1CCCCC1` [Piperine, reference compound] was tested, and the “MIC of ciprofloxacin in presence of compound” value ([1]; compound concentration 0.7 μM) was 8 µg/mL, the “MIC of ciprofloxacin in presence of compound” value ([1]; compound concentration 1.5 μM) was 8 µg/mL and the “MIC of ciprofloxacin in presence of compound” value ([1]; compound concentration 3.12 μM) was 8 µg/mL. The “MIC of ciprofloxacin in presence of compound” value ([1]; compound concentration 6.25 μM) was 8 µg/mL, the “MIC of ciprofloxacin in presence of compound” value ([1]; compound concentration 12.5 μM) was 8 µg/mL and the “MIC of ciprofloxacin in presence of compound” value ([1]; compound concentration 25 μM) was 4 µg/mL. For the same compound, the “MIC of ciprofloxacin in presence of compound” value ([1]; compound concentration 50 μM) was 4 µg/mL and the “MEC4 (minimum effective concentration of compound that brings about 4 fold reduction in the MIC of Ciprofloxacin)” value [1] was >50 µM.
For `C/C(=C\C(=O)OCCCCCCCCC(=O)O)C[C@@H]1OC[C@H](C[C@@H]2O[C@H]2[C@@H](C)[C@H](C)O)[C@@H](O)[C@H]1O` [mupirocin, reference compound], the MIC ([3]; 24 h, read-out: MIC of mupirocin Alone, mupirocin alone, S. aureus Mupr-1, 24 hrs) was 256 µg/mL.
